Columns and labels:
[1] = system: p-p70S6K; test: Western blot of p70S6K phosphorylation (downstream target of mTOR); assay type: cell-based; settings: hederagenin 0-80 μM, α-hederin 0-24 μM, 24 h
From the text: (§1) Protein extraction and Western blots: Cells were harvested by RIPA lysis buffer (Cell Signaling Technologies, Beverly, Mass., USA), and with the final protein concentrations measured by using Bradford reagent (Bio-Rad, Hercules, Calif., USA). After electrophoresis for protein band separation, proteins were transferred to the nitrocellulose membrane which was blocked with 5% non-fat dried milk immediately after protein transfer. Corresponding primary antibodies, followed by the addition of HRP-conjugated secondary antibodies, were incubated with the protein membrane with constant shaking. Visualization of protein band pattern was performed by using the ECL Western Blotting Detection Reagents (Invitrogen, Paisley, Scotland). Band intensities were quantified by using the software, ImageJ (ImageJ 1.46r; National Institutes of Health, Bethesda, Md., USA).

[2] = system: LC3-II; test: Western blot of LC3 conversion (LC3-II) in PC-12 cells; assay type: cell-based; settings: for protein level of LC3-II with AMPK inhibitor compound C (CC): 60 μM hederagenin or 18 μM α-hederin with 5 μM CC; for protein level of LC3-II with addition of 3-MA: 60 μM hederagenin or 18 μM α-hederin with 5 mM 3-MA; for rate of LC3-II formation with lysosomal protease inhibitors (autophagic flux): 60 μM hederagenin or 18 μM α-hederin with E64d and pepstatin A (10 μg/mL), compared with compounds alone; for protein level of LC3-II: PC-12 cells, various durations and concentrations
[3] = system: LC3-II; test: Western blot of LC3-II in ATG7+/+ and ATG7−/− MEFs; assay type: cell-based, mouse; settings: 24 h
From the text: as §1

[4] = system: PC-12 cells treated with 0.5 mM MPTP; test: Rescue from MPTP-induced cell death in PC-12 cells (MTT, Annexin V flow cytometry); assay type: cell-based; settings: cell density, MTT assay and flow cytometry
Procedure: (§2) Cytotoxicity Assays and Flow Cytometry: Cell viability was measured by using the MTT method (3-[4,5-dimethylthiazol-2-yl]-2,5-diphenyl tetrazolium bromide) as described previously (Wu, A. G. et al. Int J Mol Sci 2013, 14:22618-22641). Absorbance (OD) of cell samples was obtained by spectrophotometer at 570 nm. The percentage of cell viability was calculated by using the formula: cell viability (%)=cells numbertreated/cells numberDMSO control×100. All MTT data were calculated from three independent experiments. Cell viability was also measured by flow cytometry using the Annexin V staining kit (BD Biosciences, San Jose, Calif., USA). In brief, PC-12 cells treated with hederagenin and α-hederin were analyzed by multiparametric flow cytometry using FITC-Annexin V and/or propidium iodide staining (BD Biosciences, San Jose, Calif., USA) by following manufacturer's instructions. Flow cytometry was then carried out using a FACSCalibur flow cytometer (BD Biosciences). Data acquisition and analysis were performed with CellQuest (BD Biosciences).

[5] = system: p-AMPK; test: Western blot of AMPK phosphorylation; assay type: cell-based; settings: hederagenin 0-80 μM, α-hederin 0-24 μM, 24 h
From the text: as §1

[6] = system: EGFP-HTT 74 (mutant huntingtin); test: Mutant huntingtin (EGFP-HTT 74) clearance and inclusion formation in ATG7+/+ and ATG7−/− MEFs; assay type: cell-based, mouse; settings: 24 h; for percentage of cells with fluorescence mutant huntingtin inclusion formation: ATG7−/− compared with ATG7+/+ MEFs after treatment; for inclusion clearance of overexpressed mutant huntingtin in ATG7+/+ MEFs: EGFP-HTT 74 transfected ATG7+/+ MEFs
From the text: as §1
Cells were then treated with either hederagenin or α-hederin for a further 24 h to determine the protein level of mutant huntingtin by Western blot analysis using an antibody against GFP (Ravikumar, B. et al., Nat Genet 2004, 36:585-595). On the other hand, ATG7 wild-type and ATG7-deficient MEF cells transfected with EGFP-HTT 74 were analyzed for the formation of huntingtin inclusion after 24 h of hederagenin or α-hederin treatment. Percentages of cells with cytoplasmic GFP-huntingtin (GFP-HTT74) inclusion formation were counted by the number of cells with GFP inclusions over the total number of GFP-positive cells in the same field under fluorescent microscopic analysis. More than 200 GFP-positive cells were scored for each treatment.

[7] = system: GFP-LC3 transfected PC-12 cells; test: GFP-LC3 autophagic puncta formation by fluorescence microscopy; assay type: cell-based; settings: for percentage of cells with GFP-LC3 puncta formation with addition of 3-MA: 60 μM hederagenin or 18 μM α-hederin with 5 mM 3-MA for 24 h; for formation of GFP-LC3 puncta with AMPK inhibitor compound C (CC): 60 μM hederagenin or 18 μM α-hederin with 5 mM CC for 24 h; for formation of fluorescent LC3 II puncta: PC-12 cells, hederagenin 20-80 μM, α-hederin 6-24 μM, 4-24 h
Procedure: Firstly, cells were plated on top of coverslips inside a 6-well culture dish. After compound treatment, cells were fixed with 4% paraformaldehyde for 20 min. FluorSave™ mounting media (Calbiochem, San Diego, Calif., USA) was used to mount the coverslips with cells before subjected to fluorescence microscopic analysis. The number of GFP-positive cells, and cells with GFP-LC3 puncta formation were examined and counted under the Nikon ECLIPSE 80i microscope by using 40× of magnification. In order to standardize the quantitation, the percentage of cells with autophagy induction was defined by counting the number of cells with increased punctate GFP-LC3 fluorescence in GFP-positive cells. A minimum of 1000 GFP-positive cells from 3 randomly selected fields were scored.
Firstly, cells were plated on top of coverslips inside a 6-well culture dish. After compounds treatments, cells were fixed with 4% paraformaldehyde for 20 min. FluorSave™ mounting media (Calbiochem, San Diego, Calif., USA) was used to mount the coverslips with cells before subjected to fluorescence microscopic analysis. The number of GFP-positive cells, and cells with GFP-LC3 puncta formation was examined and counted under the Nikon ECLIPSE 80i microscope by using 40× of magnification. In order to standardize the quantitation, the percentage of cells with autophagy induction was defined by counting the number of cells with punctate GFP-LC3 fluorescence in GFP-positive cells. A minimum of 1000 GFP-positive cells from 3 randomly selected fields were scored.

[8] = system: PC-12 cells; test: MTT cytotoxicity assay in PC-12 cells; assay type: cell-based; settings: for IC50: MTT assay for 48 h
Procedure: (§3) Cytotoxicity Assays: Cell viability was measured by using the MTT method (3-[4,5-dimethylthiazol-2-yl]-2,5-diphenyl tetrazolium bromide) as described previously (Wu, A. G. et al. Int J Mol Sci 2013, 14:22618-22641). Absorbance (OD) of cell samples was obtained by spectrophotometer at 570 nm. The percentage of cell viability was calculated by using the formula: cell viability (%)=cells numbertreated/cells numberDMSO control×100. All MTT data were calculated from three independent experiments.
as §3, with “experiments. Cell viability was also measured by flow cytometry using the Annexin V staining kit (BD Biosciences, San Jose, Calif., USA).” for “experiments.”
as §2, with “Data acquisition and analysis were performed with CellQuest (BD Biosciences).” left out

Structure (SMILES)	phosphorylation of p70S6K [1]	protein level of LC3-II with AMPK inhibitor compound C (CC) [2]	protein level of LC3-II with addition of 3-MA [2]	rate of LC3-II formation with lysosomal protease inhibitors (autophagic flux) [2]	protein level of LC3-II [2]	protein expression of LC3-II in ATG7+/+ MEFs [3]	rescue from MPTP-induced cell death [4]	phosphorylation of AMPK [5]	percentage of cells with fluorescence mutant huntingtin inclusion formation [6]	inclusion clearance of overexpressed mutant huntingtin in ATG7+/+ MEFs [6]	percentage of cells with GFP-LC3 puncta formation with addition of 3-MA [7]	formation of GFP-LC3 puncta with AMPK inhibitor compound C (CC) [7]	formation of fluorescent LC3 II puncta [7]	IC50 ([8]; Rattus norvegicus) [µM]	IC50 [8] [µM]	cytotoxicity at most effective concentration ([8]; hederagenin 80 μM, α-hederin 24 μM)
CC1(C)CC[C@]2(C(=O)O)CC[C@]3(C)C(=CC[C@@H]4[C@@]5(C)CC[C@H](O)[C@@](C)(CO)[C@@H]5CC[C@]43C)[C@@H]2C1 [hederagenin]	reduced phosphorylation of p70S6K	significant reduction in protein level of LC3-II	decreased protein level of LC3-II	significantly increase the rate of LC3-II formation	increase in the protein level of LC3-II via a dose- and time-dependent manner	significant increased protein expression of LC3-II	rescue cells from MPTP-induced cell death	increased phosphorylation of AMPK	higher percentage of cells with fluorescence mutant huntingtin inclusion formation was found in ATG−/− MEFs	facilitate the inclusion clearance of overexpressed mutant huntingtin	decreases the rate of autophagy	significant reduction	increased formation of fluorescent LC3 II puncta	> 100		
C[C@@H]1O[C@@H](O[C@H]2[C@H](O[C@H]3CC[C@@]4(C)[C@@H](CC[C@]5(C)[C@@H]4CC=C4[C@@H]6CC(C)(C)CC[C@]6(C(=O)O)CC[C@]45C)[C@]3(C)CO)OC[C@H](O)[C@@H]2O)[C@H](O)[C@H](O)[C@H]1O [α-hederin]	reduced phosphorylation of p70S6K	significant reduction in protein level of LC3-II	decreased protein level of LC3-II	significantly increase the rate of LC3-II formation	increase in the protein level of LC3-II via a dose- and time-dependent manner	significant increased protein expression of LC3-II	rescue cells from MPTP-induced cell death	increased phosphorylation of AMPK	higher percentage of cells with fluorescence mutant huntingtin inclusion formation was found in ATG−/− MEFs	facilitate the inclusion clearance of overexpressed mutant huntingtin	decreases the rate of autophagy	significant reduction	increased formation of fluorescent LC3 II puncta		26.5	lack of obvious cytotoxicity
